Molecules are shown by their SMILES.

The nature of data set [1]: Tmax in BALB/c mouse at 1 mg/kg, iv measured upto 24 hrs by LC-MS/MS analysis. In kind it is ADME, organism-based. The note with it: in vivo.
The nature of data set [2]: Half life in BALB/c mouse at 5 mg/kg, po measured upto 24 hrs by LC-MS/MS analysis. Format: ADME, organism-based. The note with it: in vivo.
Data set [3] is described as follows: Tmax in BALB/c mouse at 5 mg/kg, po measured upto 24 hrs by LC-MS/MS analysis. In kind it is ADME, organism-based. The note with it: in vivo.
The nature of data set [4]: MRT(0 to infinity) in BALB/c mouse at 5 mg/kg, po measured upto 24 hrs by LC-MS/MS analysis. In kind it is ADME, organism-based. The note with it: in vivo.
Data set [5] is described as follows: Oral bioavailability in BALB/c mouse at 5 mg/kg measured upto 24 hrs by LC-MS/MS analysis. In kind it is ADME, organism-based. The following applies: in vivo.
Data set [6] is described as follows: Toxicity in BALB/c mouse assessed as effect on lung at 60 to 100 mg/kg, po measured after 14 days by H and E staining based analysis. Format: organism-based. The following applies: in vivo, 336 h, dose 60-100 mg/kg, time 14 day.
Data set [7] is described as follows: Toxicity in BALB/c mouse assessed as effect on kidney at 60 to 100 mg/kg, po measured after 14 days by H and E staining based analysis. Format: organism-based. The note with it: in vivo, 336 h, dose 60-100 mg/kg, time 14 day.
Data set [8] in a line: Toxicity in BALB/c mouse assessed as effect on AST level in serum at 60 to 100 mg/kg, po measured after 14 days. The note with it: in vivo, 336 h, dose 60-100 mg/kg, time 14 day. Format: organism-based.

Usually Tmax stands for the time from dosing to the highest level. For orientation: half-life means how long it takes for the measured level to halve. Low values mean fast loss, high ones slow loss. A word on the MRT inf: it is a mean duration of stay, worked out from the concentration-time curve. By bioavailability is commonly meant the share of a dose that reaches the circulation, judged against a reference dose that is usually intravenous. With `CC(C)N1CCCN(c2ccc(C(=O)n3nc(-c4ccccn4)nc3N)c3ccccc23)CC1`, the Tmax was 23.4 min in data set [1] and 1 h in data set [3]. In addition, the half-life in data set [2] is 103 min. The compound further had an MRT inf in data set [4] of 1.6 h. For the same compound, the bioavailability in data set [5] is 28.2%. In addition, the Activity entry in data set [6], in data set [7] and in data set [8] was “Non-Toxic” each time.

For the origin of these results see ChEMBL document CHEMBL5500412, “Discovery of Highly Selective, Potent, Covalent, and Orally Bioavailable Factor XIIa Inhibitors for the Treatment of Thrombo-Inflammation” (J Med Chem, 2024).
